Experimental data reported in patent publication US8536136B2, “Inhibitors of serine proteases, particularly HCV NS3-NS4A protease” (Vertex Pharmaceuticals Incorporated, priority 2004, dated 2013).

Molecular target: HCV NS3-NS4A protease (tNS3 with KK4A) (Hepatitis C virus genotype 1a, UniProt P27958)
Assay: HCV Ki Assay (HPLC microbore separation of 5AB substrate and products)
Format: biochemical
Conditions: 25 nM tNS3, 25 μM KK4A, 25 μM 5AB substrate, 20 min at 30 C
Procedure: HPLC Microbore Method for Separation of 5AB Substrate and Products
NH2-Glu-Asp-Val-Val-(alpha)Abu-Cys-Ser-Met-Ser-Tyr-COOH
A stock solution of 20 mM 5AB (or concentration of your choice) was made in DMSO w/0.2M DTT. This was stored in aliquots at −20 C.
Buffer: 50 mM HEPES, pH 7.8; 20% glycerol; 100 mM NaCl
Total assay volume was 100 μL
The buffer, KK4A, DTT, and tNS3 were combined; distributed 78 μL each into wells of 96 well plate. This was incubated at 30 C for ˜5-10 min.
2.5 μL of appropriate concentration of test compound was dissolved in DMSO (DMSO only for control) and added to each well. This was incubated at room temperature for 15 min.
Initiated reaction by addition of 20 μL of 250 μM 5AB substrate (25 μM concentration is equivalent or slightly lower than the Km for 5AB).
Incubated for 20 min at 30 C.
Terminated reaction by addition of 25 μL of 10% TFA
Transferred 120 μL aliquots to HPLC vials
Separated SMSY product from substrate and KK4A by the following method:
Microbore Separation Method:
Stop time: 17 min Post-run time: 10 min.

Sequence of HCV NS3-NS4A protease (tNS3 with KK4A) (P27958 1027-1208): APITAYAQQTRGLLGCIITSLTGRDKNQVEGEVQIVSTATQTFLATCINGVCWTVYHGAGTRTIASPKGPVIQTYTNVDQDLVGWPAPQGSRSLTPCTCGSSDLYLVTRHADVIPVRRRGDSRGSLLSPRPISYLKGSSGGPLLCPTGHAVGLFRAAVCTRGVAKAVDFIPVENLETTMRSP
Sequence of HCV NS3-NS4A protease (tNS3 with KK4A) (P27958 1658-1711): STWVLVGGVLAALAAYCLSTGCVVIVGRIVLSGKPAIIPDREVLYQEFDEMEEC

Row | SMILES | Ki [nM]
1 | C=CCONC(=O)C(=O)[C@H](CCC)NC(=O)[C@@H]1C[C@@H]2CCCC[C@@H]2N1C(=O)[C@@H](NC(=O)[C@@H](NC(=O)c1cnccn1)C1CCCCC1)C(C)(C)C [Compound 4, 1-(2-{2-Cyclohexyl-2-[(pyrazine-2-carbonyl)-amino]-acetylamino}-3,3-dimethyl-butyryl)-octahydro-indole-2-carboxylic acid (1-allyloxyaminooxalyl-butyl)-amide] | > 3000
2 | CCC[C@H](NC(=O)[C@@H]1C[C@@H]2CCCC[C@@H]2N1C(=O)[C@@H](NC(=O)[C@@H](NC(=O)c1cnccn1)C1CCCCC1)C(C)(C)C)C(=O)C(=O)NOC(C)(C)C [Compound 2, 1-(2-{2-Cyclohexyl-2-[(pyrazine-2-carbonyl)-amino]-acetylamino}-3,3-dimethyl-butyryl)-octahydro-indole-2-carboxylic acid (1-tert-butoxyaminooxalyl-butyl)-amide] | < 1500
3 | CCC[C@H](NC(=O)[C@@H]1C[C@@H]2CCCC[C@@H]2N1C(=O)[C@@H](NC(=O)[C@@H](NC(=O)c1cnccn1)C1CCCCC1)C(C)(C)C)C(=O)C(=O)NOCC(C)C [Compound 1, 1-(2-{2-Cyclohexyl-2-[(pyrazine-2-carbonyl)-amino]-acetylamino}-3,3-dimethyl-butyryl)-octahydro-indole-2-carboxylic acid (1-isobutoxyaminooxalyl-butyl)-amide] | < 1500
4 | CCC[C@H](NC(=O)[C@@H]1C[C@@H]2CCCC[C@@H]2N1C(=O)[C@@H](NC(=O)[C@@H](NC(=O)c1cnccn1)C1CCCCC1)C(C)(C)C)C(=O)C(=O)NOc1ccccc1 [Compound 5, 1-(2-{2-Cyclohexyl-2-[(pyrazine-2-carbonyl)-amino]-acetylamino}-3,3-dimethyl-butyryl)-octahydro-indole-2-carboxylic acid (1-phenoxyaminooxalyl-butyl)-amide] | 1500 to 3000
5 | CCC[C@H](NC(=O)[C@@H]1C[C@@H]2CCCC[C@@H]2N1C(=O)[C@@H](NC(=O)[C@@H](NC(=O)c1cnccn1)C1CCCCC1)C(C)(C)C)C(=O)C(=O)NOCc1ccccc1 [Compound 3, 1-(2-{2-Cyclohexyl-2-[(pyrazine-2-carbonyl)-amino]-acetylamino}-3,3-dimethyl-butyryl)-octahydro-indole-2-carboxylic acid (1-benzyloxyaminooxalyl-butyl)-amide] | 1500 to 3000
6 | CCC[C@H](NC(=O)[C@@H]1C[C@@H]2CCCC[C@@H]2N1C(=O)[C@@H](NC(=O)[C@@H](NC(=O)c1cnccn1)C1CCCCC1)C(C)(C)C)C(=O)C(=O)NN(C)c1ccccc1 [Compound 6, 1-(2-{2-Cyclohexyl-2-[(pyrazine-2-carbonyl)-amino]-acetylamino}-3,3-dimethyl-butyryl)-octahydro-indole-2-carboxylic acid [1-(N′-methyl-N′-phenyl-hydrazinooxalyl)-butyl]-amide] | < 1500
7 | CCC[C@H](NC(=O)[C@@H]1C[C@@H]2CCCC[C@@H]2N1C(=O)[C@@H](NC(=O)[C@@H](NC(=O)c1cnccn1)C1CCCCC1)C(C)(C)C)C(=O)C(=O)NN(Cc1ccccc1)Cc1ccccc1 [Compound 8] | > 3000
8 | CCC[C@H](NC(=O)[C@@H]1C[C@@H]2CCCC[C@@H]2N1C(=O)[C@@H](NC(=O)[C@@H](NC(=O)c1cnccn1)C1CCCCC1)C(C)(C)C)C(=O)C(=O)NN1CCOCC1 [Compound 7] | > 3000
